Assay: xn = mol fraction of the nth substance listed
Conditions: 103 kPa

C[Si]1(C)O[Si](C)(C)O[Si](C)(C)O[Si](C)(C)O1 + CCCCCCCCCCCC
viscosity [mPa·s]
Conditions	298.15 K	308.15 K	318.15 K
x1 = 0.05	1.314	1.107	0.951
x1 = 0.1	1.32	1.113	0.962
x1 = 0.15	1.342	1.132	0.972
x1 = 0.2	1.352	1.141	0.982
x1 = 0.25	1.366	1.153	0.991
x1 = 0.3	1.384	1.167	1
x1 = 0.35	1.402	1.183	1.012
x1 = 0.3999	1.431	1.202	1.028
x1 = 0.45	1.454	1.225	1.048
x1 = 0.5	1.489	1.251	1.068
x1 = 0.5501	1.517	1.278	1.089
x1 = 0.6	1.554	1.309	1.114
x1 = 0.65	1.6	1.345	1.142
x1 = 0.6999	1.643	1.38	1.173
x1 = 0.75	1.7	1.426	1.209
x1 = 0.7999	1.759	1.473	1.248
x1 = 0.85	1.828	1.523	1.292
x1 = 0.9	1.91	1.588	1.343
x1 = 0.95	1.985	1.652	1.39

C[Si]1(C)O[Si](C)(C)O[Si](C)(C)O[Si](C)(C)O1 + CCCCCCCCCCCCC
viscosity [mPa·s]
Conditions	298.15 K	308.15 K	318.15 K
x1 = 0.05	1.619	1.351	1.145
x1 = 0.1	1.61	1.343	1.139
x1 = 0.15	1.604	1.339	1.137
x1 = 0.2	1.602	1.338	1.134
x1 = 0.2501	1.604	1.346	1.136
x1 = 0.3	1.608	1.342	1.139
x1 = 0.35	1.614	1.345	1.143
x1 = 0.4	1.62	1.355	1.149
x1 = 0.45	1.636	1.366	1.159
x1 = 0.5	1.649	1.375	1.167
x1 = 0.55	1.667	1.389	1.177
x1 = 0.6	1.69	1.406	1.191
x1 = 0.65	1.715	1.43	1.209
x1 = 0.7	1.751	1.458	1.24
x1 = 0.75	1.794	1.498	1.269
x1 = 0.8	1.826	1.53	1.293
x1 = 0.85	1.89	1.572	1.328
x1 = 0.9	1.941	1.62	1.365
x1 = 0.95	1.996	1.659	1.405

Reference: the CheMixHub viscosity set
